Columns and labels:
human NK-1 receptor = molecular target: T1, human NK-1 receptor (Homo sapiens, UniProt P25103); experiment: Affinity for the NK-1 receptor, [3H] substance P displacement binding assay; settings: human NK-1 receptors in CHO cells (Semliki virus expression system); [3H] substance P 0.6 nM; 60 min at room temperature; read-out: affinity to the NK-1 receptor, given as pKi (converted)
T1 construct: expressed in transfected cells; host or cells: CHO cells infected using the Semliki virus expression system; membrane suspension
Method: The affinity of test compounds for the NK-1 receptor was evaluated at human NK-1 receptors in CHO cells infected with the human NK-1 receptor (using the Semliki virus expression system) and radiolabelled with [3H] substance P (final concentration 0.6 nM). Binding assays were performed in HEPES buffer (50 mM, pH 7.4) containing BSA (0.04%) leupeptin (8 μg/ml), MnCl2 (3 mM) and phosphoramidon (2 μM). Binding assays consisted of 250 μl of membrane suspension (1.25×10^5 cells/assay tube), […] of buffer of displacing agent and 125 μl of [3H] substance P. Displacement curves were determined with at least seven concentrations of the compound. The assay tubes were incubated for 60 min at room temperature after which time the tube contents were rapidly filtered under vacuum through GF/C filters presoaked for 60 min with PEI (0.3%) with 2×2 ml washed of HEPES buffer (50 mM, pH 7.4). The radioactivity retained on the filters was measured by scintillation counting. All assays were performed in triplicate in at least 2 separate experiments.

T1 sequence (P25103 whole entry): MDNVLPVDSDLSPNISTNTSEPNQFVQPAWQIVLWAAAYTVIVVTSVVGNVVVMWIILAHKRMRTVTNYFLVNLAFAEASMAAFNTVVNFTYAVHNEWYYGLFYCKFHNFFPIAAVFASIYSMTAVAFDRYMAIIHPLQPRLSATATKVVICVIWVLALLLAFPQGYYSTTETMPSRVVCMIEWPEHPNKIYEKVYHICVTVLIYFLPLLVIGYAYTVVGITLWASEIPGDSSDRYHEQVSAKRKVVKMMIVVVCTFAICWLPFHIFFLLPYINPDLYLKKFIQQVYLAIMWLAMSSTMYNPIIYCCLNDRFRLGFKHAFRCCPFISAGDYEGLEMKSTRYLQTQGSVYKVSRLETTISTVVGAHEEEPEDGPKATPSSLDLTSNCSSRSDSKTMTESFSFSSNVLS

Structure (SMILES) | melting point [°C] | Ki (human NK-1 receptor) [nM]
Cc1ccccc1-c1ccc(N)cc1N(C)C(=O)C(C)(C)c1cc(C(F)(F)F)cc(C(F)(F)F)c1 [Example 18, N-(4-Amino-2′-methyl-biphenyl-2-yl)-2-(3,5-bis-trifluoromethyl-phenyl)-N-methyl-isobutyramide] | – | 5.25
CNc1ccc(-c2ccccc2C)c(N(C)C(=O)C(C)(C)c2cc(C(F)(F)F)cc(C(F)(F)F)c2)c1 [Example 20, 2-(3,5-Bis-trifluoromethyl-phenyl)-N-methyl-N-(2′-methyl-4-methylamino-biphenyl-2-yl)-isobutyramide] | – | 9.77
Cc1ccccc1-c1cc(N2CCN(C)CC2)ccc1C(=O)N(C)Cc1cc(C(F)(F)F)cc(C(F)(F)F)c1 [Example 27, 2′-Methyl-5-(4-methyl-piperazin-1-yl)-biphenyl-2-carboxylic acid (3,5-bis-trifluoromethyl-benzyl)-methyl-amide] | – | 1.45

More lines, now with the values ahead:

melting point [°C] | Ki (human NK-1 receptor) [nM] | Structure (SMILES)
126 to 128 | – | CN(Cc1cc(Cl)cc(Cl)c1)C(=O)c1ccccc1-c1ccccc1 [Example 2, Biphenyl-2-carboxylic acid (3,5-dichloro-benzyl)-methyl-amide]
126.7 to 127.1 | – | Cc1cc(CN(C)C(=O)c2ccccc2-c2ccccc2)cc(C(F)(F)F)c1 [Example 3, Biphenyl-2-carboxylic acid methyl-(3-methyl-5-trifluoromethyl-benzyl)-amide]
